According to US20030044380A1, “Adhesive including medicament” (priority 2001, published 2003):
One block for each compound: values may come before it.

Columns and labels:
[1] = Solubility in formaldehyde acetone crosslinking solution; type: physicochemical
Description: While not wishing to be limited to any particular mechanism, it is believed that the crosslinking step accounts, in part, for the encapsulation efficiency.

[2] = Direct blending of unencapsulated medicament with cyanoacrylic ester (storage stability); type: physicochemical
Procedure: Adhesive formulations including unencapsulated antibiotics were investigated. The medicaments were vacuum dried for 6 hours at room temperature in the presence of phosphorous pentoxide to remove the residual water. Direct blending of the medicaments with cyanoacrylic ester was conducted in a drying chamber protected by a high-purity nitrogen atmosphere.

[3] = Release of medicament from solidified adhesive film into physiologic saline; type: physicochemical; settings: extract in physiologic saline, UV spectroscopy
Procedure: Samples of adhesive containing either encapsulated Penicillin G or unencapsulated Penicillin G were prepared as described above. Solidification of the adhesives was carried out in moist air so as to provide an accelerated solidification rate. The solidified adhesives having a thickness of about 1 mm were cut into small pieces which were immersed in physiologic saline at room temperature. The aqueous extracts were examined using UV spectroscopy.

[4] = Stability of medicament in aqueous solution or extract (UV, HPLC); settings: physiologic saline or aqueous solution
Description: Because the UV spectra of DSP and the extractive aqueous solution of Super Glue™ have overlapped absorptions at 240 nm, the release behavior of cyanoacrylate adhesives containing DSP microcapsules was studied by HPLC instead of UV spectroscopy.

- solubility in a formaldehyde acetone solution [1]: relatively weak solubility
- time to solidification after direct mixing ([2]; methyl cyanoacrylate (Super Glue) with dry powder, room temperature): about 3 hours
SMILES: COc1c(N2CCNC(C)C2)c(F)cc2c(=O)c(C(=O)O)cn(C3CC3)c12 (stereo not drawn) [Gatifloxacin]

SMILES: CC1(C)S[C@@H]2[C@H](NC(=O)Cc3ccccc3)C(=O)N2[C@H]1C(=O)[O-].[Na+] [Penicillin G, Penicillin G Sodium Salt]
- observation on direct mixing with Super Glue ([2]; unencapsulated medicament): Agglomeration was observed
- release from solidified adhesive film [3]: no detectable release
- stability in aqueous solution / aqueous extract [4]: observed to decompose during the release process

SMILES: Nc1ccc(S(N)(=O)=O)cc1 [Sulfanilamide, Sulfanilamidum Crystallinum Sterile]
- shelf life of cyanoacrylate adhesives in the presence of unencapsulated medicament ([2]; direct blending under nitrogen): more than 24 hours
